Ends that are not written are not given here.
Key:
[1] = system: calcitonin receptor (CTR) ECD; details: cited from earlier work
From the text: Similar to ssCGRP, the C-terminal segment of sCT has increased affinity for the receptor ECD, bein ...

[2] = system: CGRPR (CLR:RAMP1) in COS-7 cells; experiment: CAMYEL cAMP biosensor competition assay with N-terminal TMD-binding agonist AM(13-36); format: cell-based, human; details: 30 μM, end point cAMP biosensor assay
Experimental: COS-7 cells were seeded in a 96-well white plate (Corning; Costar 3917) with a density of 20,000 cell/well, 100 μL/well, and incubated at 37 °C and 5% CO2 for 24 h. Cells were transiently transfected with 250 ng DNA total with 25 ng CLR, 25 ng RAMP, 125 ng CAMYEL biosensor, 75 ng empty pcDNA3.1(+) vector, and 375 ng branched PEI per well. Transfected cells were incubated at 37 °C and 5% CO2. […] The preincubation was followed by addition of coelenterazine h (10 μM) and simultaneous addition of 30 μM AM(13-36) agonist and antagonist as indicated, and incubated for 1 h at room temperature in total volume of 50 μL. Emissions at 475 and 535 nm were read in a PHERAstar FS plate reader (BMG Labtech, Ortenberg, Germany). The buffer control (no ligand) was subtracted from each data set and plotted with the corresponding 475/535 BRET ratio in GraphPad Prism.

[3] = cited from earlier work
From the text: Our analysis of the ssCGRP agonist and its truncated antagonist forms advance our understanding of their potential as long-acting therapeutics. It is widely accepted that long residence time is a desirable property of drugs.[61],[62] This is particularly true for antagonists, but there can also be value in long residence time GPCR agonists.[63],[64] […] The ssCGRP(8-37) antagonist has a CGRPR residence-time longer than the plasma half-life and the ssCGRP agonist can signal for longer than t ...

Salmon calcitonin [sCT]
higher affinity of C-terminal segment for receptor ECD than hCT [1]: ~50 fold

AM(13-36): C-terminally truncated adrenomedullin agonist comprising the TMD-binding portion (SFGCRFGTCTVQKLAHQIYQFTDK; ends and bridges not checked; cysteine pairing not given here; UniProt P35318 107-130, looked up, fragment)
agonism of the CGRPR (cAMP) [2]: agonism

CC(C)C[C@H](NC(=O)CNC(=O)[C@H](C)NC(=O)[C@H](CC(C)C)NC(=O)[C@H](CCCNC(=N)N)NC(=O)[C@H](Cc1cnc[nH]1)NC(=O)[C@@H](NC(=O)[C@@H](NC(=O)[C@@H]1CSSC[C@H](NC(=O)[C@H](C)N)C(=O)N[C@@H](CC(=O)O)C(=O)N[C@@H]([C@@H](C)O)C(=O)N[C@@H](C)C(=O)N[C@@H]([C@@H](C)O)C(=O)N1)C(C)C)[C@@H](C)O)C(=O)N[C@@H](CC(C)C)C(=O)N[C@@H](CO)C(=O)N[C@@H](CCCNC(=N)N)C(=O)N[C@@H](CO)C(=O)NCC(=O)NCC(=O)N[C@H](C(=O)N[C@H](C(=O)N[C@@H](CCCCN)C(=O)N[C@@H](CC(N)=O)C(=O)N[C@@H](CC(N)=O)C(=O)N[C@@H](Cc1ccccc1)C(=O)N[C@H](C(=O)N1CCC[C@H]1C(=O)N[C@H](C(=O)N[C@@H](CC(N)=O)C(=O)N[C@H](C(=O)NCC(=O)N[C@@H](CO)C(=O)N[C@@H](CCCCN)C(=O)N[C@@H](C)C(=O)N[C@@H](Cc1ccccc1)C(N)=O)C(C)C)[C@@H](C)O)C(C)C)C(C)C)C(C)C [CGRP(1-37), αCGRP(1-37)]
plasma half-life [3]: ~20 min

From publication PMC12004451, “Characterization of the Two-Domain Peptide Binding Mechanism of the Human CGRP Receptor for CGRP and the Ultrahigh Affinity ssCGRP Variant” (Biochemistry, 2025)
